Experimental data taken from PubChem BioAssay AID272 (DTP/NCI, 2004).
Values joined by “and” are separate entries in the source; they are usually repeats but may differ in a detail not shown here. Identical values can stand only once. Results filed as inconclusive are left out.

System: Lewis lung carcinoma i.m., BDF1 mice, T/C %
Assay: NCI In Vivo Anticancer Drug Screen. Data for tumor model Lewis Lung Carcinoma (intramuscular) in B6D2F1 (BDF1) mice
Outline: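 Value is the ratio of a treated-group measurement (T) to the matching vehicle-control measurement (C), using either survival or tumour size in mice bearing transplanted tumours.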

[1] = endpoint: mean tumor weight (est.), dose: 50.0 mg/kg/injection, schedule: Q01DX011 (ip), vehicle: saline with Tween-80, higher = larger tumour
[2] = endpoint: median survival time, dose: 50.0 mg/kg/injection, schedule: Q01DX011 (ip), vehicle: saline with Tween-80, higher = longer survival

COc1ccc(OC)c(/C=C/c2ccnc3ccccc23)c1
T/C [1]: 84 % of control | T/C (endpoint: mean tumor weight (est.), dose: 100.0 mg/kg/injection, schedule: Q01DX011 (ip), vehicle: saline with Tween-80, higher = larger tumour): 75 % of control | T/C (endpoint: mean tumor weight (est.), dose: 400.0 mg/kg/injection, schedule: Q01DX011 (ip), vehicle: saline with Tween-80, higher = larger tumour): 77 % of control | T/C [2]: 100 % of control | T/C (endpoint: median survival time, dose: 100.0 mg/kg/injection, schedule: Q01DX011 (ip), vehicle: saline with Tween-80, higher = longer survival): 102 % of control

Nc1ccn(C2OC(COP(=O)(O)O)C(O)C2O)c(=O)n1 (stereo unspecified)
T/C (endpoint: mean tumor weight, dose: 19.6 mg/kg/injection, schedule: Q01DX011 (ip), vehicle: saline, higher = larger tumour): 68 % of control | T/C (endpoint: median survival time, dose: 19.6 mg/kg/injection, schedule: Q01DX011 (ip), vehicle: saline, higher = longer survival): 94 % of control and 96 % of control | T/C (endpoint: median survival time, dose: 32.6 mg/kg/injection, schedule: Q01DX011 (ip), vehicle: saline, higher = longer survival): 43 % of control | T/C (endpoint: median survival time, dose: 54.0 mg/kg/injection, schedule: Q01DX011 (ip), vehicle: saline, higher = longer survival): 42 % of control | T/C (endpoint: median survival time, dose: 90.0 mg/kg/injection, schedule: Q01DX011 (ip), vehicle: saline, higher = longer survival): 39 % of control

CN(N=O)C(=O)N[C@@H](C=O)[C@@H](O)[C@H](O)[C@H](O)CO
T/C (endpoint: mean tumor weight, dose: 12.5 mg/kg/injection, schedule: Q01DX011 (ip), vehicle: saline, higher = larger tumour): 66 % of control | T/C (endpoint: mean tumor weight, dose: 25.0 mg/kg/injection, schedule: Q01DX011 (ip), vehicle: saline, higher = larger tumour): 95 % of control | T/C (endpoint: mean tumor weight, dose: 100.0 mg/kg/injection, schedule: Q01DX011 (ip), vehicle: saline, higher = larger tumour): 61 % of control | T/C (endpoint: mean tumor weight, dose: 200.0 mg/kg/injection, schedule: Q01DX011 (ip), vehicle: saline, higher = larger tumour): 74 % of control | T/C (endpoint: median survival time, dose: 12.5 mg/kg/injection, schedule: Q01DX011 (ip), vehicle: saline, higher = longer survival): 109 % of control | T/C (endpoint: median survival time, dose: 25.0 mg/kg/injection, schedule: Q01DX011 (ip), vehicle: saline, higher = longer survival): 95 % of control | T/C (endpoint: median survival time, dose: 50.0 mg/kg/injection, schedule: Q01DX011 (ip), vehicle: saline, higher = longer survival): 90 % of control and 100 % of control | T/C (endpoint: median survival time, dose: 100.0 mg/kg/injection, schedule: Q01DX011 (ip), vehicle: saline, higher = longer survival): 92 % of control | T/C (endpoint: median survival time, dose: 200.0 mg/kg/injection, schedule: Q01DX011 (ip), vehicle: saline, higher = longer survival): 121 % of control

O=c1cnn(C2OC(CO)C(O)C2O)c(=O)[nH]1 (stereo unspecified)
T/C (endpoint: median survival time, dose: 75.0 mg/kg/injection, schedule: Q01DX009 (ip), vehicle: Klucel (hydroxypropylcellulose) (HPC), higher = longer survival): 112 % of control | T/C (endpoint: median survival time, dose: 150.0 mg/kg/injection, schedule: Q01DX009 (ip), vehicle: Klucel (hydroxypropylcellulose) (HPC), higher = longer survival): 120 % of control | T/C (endpoint: median survival time, dose: 300.0 mg/kg/injection, schedule: Q01DX009 (ip), vehicle: Klucel (hydroxypropylcellulose) (HPC), higher = longer survival): 121 % of control | T/C (endpoint: median survival time, dose: 600.0 mg/kg/injection, schedule: Q01DX009 (ip), vehicle: Klucel (hydroxypropylcellulose) (HPC), higher = longer survival): 119 % of control

CS(=O)(=O)c1cc(C(F)(F)F)cc([N+](=O)[O-])c1Cl
T/C (endpoint: mean tumor weight (est.), dose: 25.0 mg/kg/injection, schedule: Q01DX011 (ip), vehicle: saline with Tween-80, higher = larger tumour): 108 % of control | T/C [1]: 63 % of control | T/C (endpoint: median survival time, dose: 25.0 mg/kg/injection, schedule: Q01DX011 (ip), vehicle: saline with Tween-80, higher = longer survival): 115 % of control | T/C [2]: 111 % of control

CNNCc1ccc(C(=O)NC(C)C)cc1
T/C (endpoint: mean tumor weight (est.), dose: 23.0 mg/kg/injection, schedule: Q01DX009 (ip), vehicle: saline, higher = larger tumour): 86 % of control | T/C (endpoint: mean tumor weight (est.), dose: 39.0 mg/kg/injection, schedule: Q01DX009 (ip), vehicle: saline, higher = larger tumour): 95 % of control | T/C (endpoint: mean tumor weight (est.), dose: 65.0 mg/kg/injection, schedule: Q01DX009 (ip), vehicle: saline, higher = larger tumour): 64 % of control | T/C (endpoint: mean tumor weight (est.), dose: 108.0 mg/kg/injection, schedule: Q01DX009 (ip), vehicle: saline, higher = larger tumour): 79 % of control | T/C (endpoint: mean tumor weight (est.), dose: 180.0 mg/kg/injection, schedule: Q01DX009 (ip), vehicle: saline, higher = larger tumour): 95 % of control | T/C (endpoint: mean tumor weight (est.), dose: 300.0 mg/kg/injection, schedule: Q01DX009 (ip), vehicle: saline, higher = larger tumour): 37 % of control | T/C (endpoint: mean tumor weight, dose: 23.0 mg/kg/injection, schedule: Q01DX011 (ip), vehicle: saline, higher = larger tumour): 100 % of control | T/C (endpoint: mean tumor weight, dose: 37.5 mg/kg/injection, schedule: Q01DX011 (ip), vehicle: saline, higher = larger tumour): 78 % of control | T/C (endpoint: mean tumor weight, dose: 39.0 mg/kg/injection, schedule: Q01DX011 (ip), vehicle: saline, higher = larger tumour): 72 % of control | T/C (endpoint: mean tumor weight, dose: 65.0 mg/kg/injection, schedule: Q01DX011 (ip), vehicle: saline, higher = larger tumour): 37 % of control | T/C (endpoint: mean tumor weight, dose: 75.0 mg/kg/injection, schedule: Q01DX011 (ip), vehicle: saline, higher = larger tumour): 62 % of control | T/C (endpoint: mean tumor weight, dose: 108.0 mg/kg/injection, schedule: Q01DX011 (ip), vehicle: saline, higher = larger tumour): 62 % of control | T/C (endpoint: mean tumor weight, dose: 150.0 mg/kg/injection, schedule: Q01DX011 (ip), vehicle: saline, higher = larger tumour): 35 % of control | T/C (endpoint: mean tumor weight, dose: 180.0 mg/kg/injection, schedule: Q01DX011 (ip), vehicle: saline, higher = larger tumour): 41 % of control | T/C (endpoint: median survival time, dose: 37.5 mg/kg/injection, schedule: Q01DX011 (ip), vehicle: saline, higher = longer survival): 97 % of control | T/C (endpoint: median survival time, dose: 75.0 mg/kg/injection, schedule: Q01DX011 (ip), vehicle: saline, higher = longer survival): 91 % of control | T/C (endpoint: median survival time, dose: 150.0 mg/kg/injection, schedule: Q01DX011 (ip), vehicle: saline, higher = longer survival): 95 % of control

c1ccc2c(c1)ccc1c[n+]3ccccc3cc12
T/C (endpoint: mean tumor weight (est.), dose: 0.25 mg/kg/injection, schedule: Q01DX011 (ip), vehicle: saline, higher = larger tumour): 53 % of control | T/C (endpoint: mean tumor weight (est.), dose: 0.5 mg/kg/injection, schedule: Q01DX011 (ip), vehicle: saline, higher = larger tumour): 47 % of control
